# According to PubChem BioAssay AID1963968 (Molecular Pharmacology Branch, DTP, NCI, 2024):
# Tested on: 945468-187-T-J3-PDC spheroids with HUVEC/MSC, viability
# Test: Anticancer human tumor 945468-187-T-J3-PDC patient-derived rectal carcinoma cell line growth inhibition [PI3K]
# Settings: for IC50: curve of first compound; for viability, T/C: stronger effect = lower value
# From the text: Combinatorial screen of targeted agents with the PI3K inhibitors inavolisib, alpelisib, duvelisib, and copanlisib in multi-cell type tumor spheroids
# A high-throughput screen of multi-cell type tumor spheroids was designed to identify active combinations of targeted small molecules and PI3K pathway inhibitors. Complex spheroids include a stromal component modeled by human endothelial cells (HUVEC) and fibroblasts modeled by human mesenchymal stem cells (MSCs). The concentration ranges selected for each drug and investigational agent were based upon clinically achievable concentrations if the clinical Cmax of the agent was known.
# Compounds. The drugs and investigational agents: inavolisib (NSC800729), alpelisib (NSC765974), duvelisib (NSC772469), copanlisib (NSC816437), ipatasertib (NSC767898), afuresertib (NSC778305), talazoparib (NSC767125), sapanisertib (NSC764658), selumetinib (NSC741078), tovorafenib (DAY101, NSC766906), vemurafenib (NSC761431), ravoxertinib (NSC781343), sotorasib (NSC818433), MRTX1133 (NSC 836407), abemaciclib (NSC 768073), palbociclib (NSC758247), venetoclax (NSC 766270), SY5609 (NSC837396), enzalutamide (NSC755605), and darolutamide (NSC825331), were obtained from the National Cancer Institute (NCI) Developmental Therapeutics Program Chemical Repository. The FDA-approved anticancer drug set is available from the NCI Developmental Therapeutics Program. […] The stock solutions were prepared in dimethyl sulfoxide (DMSO, Sigma-Aldrich, St. Louis, MO, cat. D2650) at 800-fold the tested concentration and stored at -70 degrees C prior to their use. All drugs and investigational agents were tested over a range starting from a high concentration at or near the clinical Cmax and decreasing in half-log increments. If the clinical Cmax for an agent had not been determined, the highest concentration tested was 10 microM.
# Cell Culture. All cells were maintained in an incubator at 37 degrees C and 5% CO2 with 95% humidity. The PDC lines were cultured according to standard operating procedures established by the NCI PDMR (https://pdmr.cancer.gov/sops/default.htm). All PDCs were thawed and cultured in Matrigel-coated flasks prepared with a working solution of 1X Ham's F-12 nutrient mix, without supplementation (Invitrogen, Waltham, MA, cat. 11765054), 100 U/mL penicillin-streptomycin (Invitrogen, cat. 15140122), and 2.5% Matrigel (Corning Inc., Corning, NY, cat. 354248) for the first three passages. The 354836-022-R-J1-PDC, 475296-252-R-J1-PDC, and 997726-040-R-J2-PDC lines were cultured in 6A media, which includes advanced DMEM/F-12 (Thermo Fisher Scientific, cat. 12634028), 10 mM HEPES (Thermo Fisher Scientific, cat. 15630080), 1X GlutaMAX supplement (Thermo Fisher Scientific, cat. 35050061), 0.1 mg/mL primocin (InvivoGen, San Diego, CA, cat. ant-pm-2), 10% defined fetal bovine serum, heat inactivated (HyClone Laboratories Inc., Logan, UT, cat. SH30070.03HI), 50% L-WRN conditioned media (ATCC, cat. CRL-3276), 1.25 mM N-Acetyl-L-cysteine (Sigma-Aldrich, cat. A9165), 10 mM nicotinamide (Sigma-Aldrich, cat. N0636), 1X B-27 supplement (Thermo Fisher Scientific, cat. 17504044), 1X N-2 supplement (Thermo Fisher Scientific, cat. 17502048), and 10 microM Y-27632 dihydrochloride (Tocris Bioscience, Bristol, United Kingdom, cat. 1254). The 624824-186-R-J2-PDC line was cultured in 6C/Colon 1B media, which includes all 6A media components plus 50 ng/mL human EGF recombinant protein (Thermo Fisher Scientific, cat. PHG0311). […]
# 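Further: spheroids exposed to agents for 7 days before viability read.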
# 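Wherever viability, T/C is given: 100% = DMSO vehicle control viability.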
compound,measurement,setting,value
CC(Cn1ccc(-c2ccc(C#N)c(Cl)c2)n1)NC(=O)c1cc(C(C)O)[nH]n1 (configuration not stated) + CC(Nc1ncnc2nc[nH]c12)c1cc2cccc(Cl)c2c(=O)n1-c1ccccc1,IC50,second compound 0.0316 µM,> 10 µM
same,IC50,second compound 0.1 µM,> 10 µM
same,IC50,second compound 0.316 µM,> 10 µM
same,IC50,second compound 1 µM,> 10 µM
same,IC50,second compound 3.16 µM,> 10 µM
same,IC50,second compound 10 µM,> 10 µM
same,"viability, T/C","second compound 0.0316 µM, first compound 0.0316 µM",93.4%
same,"viability, T/C","second compound 0.0316 µM, first compound 0.1 µM",104%
same,"viability, T/C","second compound 0.0316 µM, first compound 0.316 µM",126%
same,"viability, T/C","second compound 0.0316 µM, first compound 1 µM",91.3%
same,"viability, T/C","second compound 0.0316 µM, first compound 3.16 µM",125%
same,"viability, T/C","second compound 0.0316 µM, first compound 10 µM",94%
same,"viability, T/C","second compound 0.1 µM, first compound 0.0316 µM",91.1%
same,"viability, T/C","second compound 0.1 µM, first compound 0.1 µM",95.5%
same,"viability, T/C","second compound 0.1 µM, first compound 0.316 µM",89.5%
same,"viability, T/C","second compound 0.1 µM, first compound 1 µM",91.4%
same,"viability, T/C","second compound 0.1 µM, first compound 3.16 µM",114%
same,"viability, T/C","second compound 0.1 µM, first compound 10 µM",105%
same,"viability, T/C","second compound 0.316 µM, first compound 0.0316 µM",95.5%
same,"viability, T/C","second compound 0.316 µM, first compound 0.1 µM",100%
same,"viability, T/C","second compound 0.316 µM, first compound 0.316 µM",118%
same,"viability, T/C","second compound 0.316 µM, first compound 1 µM",97.9%
same,"viability, T/C","second compound 0.316 µM, first compound 3.16 µM",101%
same,"viability, T/C","second compound 0.316 µM, first compound 10 µM",106%
same,"viability, T/C","second compound 1 µM, first compound 0.0316 µM",87.8%
same,"viability, T/C","second compound 1 µM, first compound 0.1 µM",108%
same,"viability, T/C","second compound 1 µM, first compound 0.316 µM",98.1%
same,"viability, T/C","second compound 1 µM, first compound 1 µM",93%
same,"viability, T/C","second compound 1 µM, first compound 3.16 µM",104%
same,"viability, T/C","second compound 1 µM, first compound 10 µM",94.8%
same,"viability, T/C","second compound 3.16 µM, first compound 0.0316 µM",94.8%
same,"viability, T/C","second compound 3.16 µM, first compound 0.1 µM",102%
same,"viability, T/C","second compound 3.16 µM, first compound 0.316 µM",96.5%
same,"viability, T/C","second compound 3.16 µM, first compound 1 µM",112%
same,"viability, T/C","second compound 3.16 µM, first compound 3.16 µM",113%
same,"viability, T/C","second compound 3.16 µM, first compound 10 µM",110%
same,"viability, T/C","second compound 10 µM, first compound 0.0316 µM",122%
same,"viability, T/C","second compound 10 µM, first compound 0.1 µM",99.1%
same,"viability, T/C","second compound 10 µM, first compound 0.316 µM",98.2%
same,"viability, T/C","second compound 10 µM, first compound 1 µM",96.7%
same,"viability, T/C","second compound 10 µM, first compound 3.16 µM",104%
same,"viability, T/C","second compound 10 µM, first compound 10 µM",91.2%
